Results: patent publication US10232043B2, “Photoactivated molecules for light-induced modulation of the activity of electrically excitable cells and methods of using the same” (UNIVERSITY OF SOUTHERN CALIFORNIA, priority 2015, dated 2019)
“Also recorded” adds a separate entry of the source.

Columns and labels:
RCS rats = assay: Histology of the retina after injection; type: in vivo, rat; conditions: 3 days after injection, preliminary
Text: This finding was reproduced in 3 of 3 RCS rats injected with Rubpy-C17, and in 2 of 2 control (sham injection) RCS rats.

HEK293T cells = assay: Whole cell patch clamp, current-clamp membrane potential under light; type: cell-based, human
Procedure: Membrane potential was monitored using whole cell patch clamp in current-clamp mode. Cultured cells (INS and HEK293) were plated on a glass-bottomed culture dishes 1-3 days prior to recording. Cells were incubated in standard extracellular solution with or without 10 μM RubpyC17 compound for approximately 1.5-2 minutes, then washed and incubated with standard extracellular solution without additional supplementation, or with 2-5 mM ascorbate, 100 μM sodium ferrocyanide, or 100-200 μM potassium ferricyanide, as indicated. The chamber was transferred to the microscope stage. Extracellular solution consisted of 140 mM NaCl, 2.8 mM KCl, 10 mM HEPES, 1 mM MgCl2, 2 mM CaCl2, 10 mM glucose, pH adjusted to 7.3, and osmolarity adjusted to 300-310. Conventional whole-cell patch clamp recordings were performed with an EPC-9 amplifier and Pulse software (HEKA Electronics). Pipette electrodes of 1.8-3.5 Mohm were fire polished before use. Intracellular solution consisted of: 145 mM KCl, 10 mM NaCl, 1 mM MgCl2, 1 mM EGTA, 2 mM ATP, 0.3 mM GTP and 10 mM HEPES, pH adjusted to 7.3 and osmolarity adjusted to 290-300 mOsm. To monitor changes in membrane voltage/potential, cells were patch clamped in current-clamp mode. Access resistances were in the range of 3-8 Mohm. Using Pulse, membrane potentials were recorded before, during and after illumination by the argon ion laser at 488 nm with an irradiance value of 0.458 mE s^−1 m^−2 or by a xenon lamp source through a 470/40 nm bandpass excitation filter with an irradiance value of 0.480 mE s^−1 m^−2. […]
Initial attempts were tied to INS and HEK cells, both cells that are not excitable under normal conditions (INS cells were maintained in low glucose <3 mM to prevent action potentials). […] To monitor the plasma membrane potential, the cells were patch-clamped in whole-cell configuration in current-clamp mode and membrane voltages were recorded while illuminating the cell at 488 nm (0.46-0.48 mE s^−1 m^−2), though other wavelengths are useful, depending on the embodiment. […]

INS cells = assay: as above; type: cell-based, rat; conditions: for light-induced increase of membrane potential: 488 nm
Procedure: Membrane potential was monitored using whole cell patch clamp in current-clamp mode. Cultured cells (INS and HEK293) were plated on a glass-bottomed culture dishes 1-3 days prior to recording. Cells were incubated in standard extracellular solution with or without 10 μM RubpyC17 compound for approximately 1.5-2 minutes, then washed and incubated with standard extracellular solution without additional supplementation, or with 2-5 mM ascorbate, 100 μM sodium ferrocyanide, or 100-200 μM potassium ferricyanide, as indicated. The chamber was transferred to the microscope stage. Extracellular solution consisted of 140 mM NaCl, 2.8 mM KCl, 10 mM HEPES, 1 mM MgCl2, 2 mM CaCl2, 10 mM glucose, pH adjusted to 7.3, and osmolarity adjusted to 300-310. Conventional whole-cell patch clamp recordings were performed with an EPC-9 amplifier and Pulse software (HEKA Electronics). Pipette electrodes of 1.8-3.5 Mohm were fire polished before use. Intracellular solution consisted of: 145 mM KCl, 10 mM NaCl, 1 mM MgCl2, 1 mM EGTA, 2 mM ATP, 0.3 mM GTP and 10 mM HEPES, pH adjusted to 7.3 and osmolarity adjusted to 290-300 mOsm. To monitor changes in membrane voltage/potential, cells were patch clamped in current-clamp mode. Access resistances were in the range of 3-8 Mohm. Using Pulse, membrane potentials were recorded before, during and after illumination by the argon ion laser at 488 nm with an irradiance value of 0.458 mE s^−1 m^−2 or by a xenon lamp source through a 470/40 nm bandpass excitation filter with an irradiance value of 0.480 mE s^−1 m^−2. The duration of illumination varied and the timing is indicated by bars on the figures.
Initial attempts were tied to INS and HEK cells, both cells that are not excitable under normal conditions (INS cells were maintained in low glucose <3 mM to prevent action potentials). The cells were incubated in 10 μM of RubpyC17 compound for approximately 2 minutes then washed with standard extracellular solution, supplemented with 2 mM ascorbate. It was hypothesized that when RubpyC17 is incorporated into the cell membrane, illumination would induce accumulation of negative charges at the outer face of the cell membrane, due to transfer of an electron from ascorbate to the photoactivated RubpyC17 resulting in membrane depolarization. To monitor the plasma membrane potential, the cells were patch-clamped in whole-cell configuration in current-clamp mode and membrane voltages were recorded while illuminating the cell at 488 nm (0.46-0.48 mE s^−1 m^−2), though other wavelengths are useful, depending on the embodiment.

[1] = system: whole-mount retinas from RCS rats; assay: Whole-mount retina multi-electrode recording; type: cell-based, rat; conditions: photoreceptor-degenerate retina, 100 micromolar for 30 minutes, 480 nm
Text: FIG. 26 illustrates data from whole-mount retinas from RCS rats. […] Each bin represents the frequency of spikes for 1 second. Before Rubpy treatment (14A), illumination at 480 nm elicited minimal change in spike frequency. […] Downward arrows mark the time of 100 ms (1st) and 1 second (2nd to fourth) light stimuli
The retina will be freshly dissected from Royal College of Surgeons (RCS) rats (9 months or older to ensure total loss of photoreceptors). The whole-mount retina will then be placed onto a multi-electrode array with the ganglion cell layer side facing the electrodes and is held down on the array using a lightly weighted porous membrane. Extracellular field potentials are recorded from 15 or 75 μm diameter electrodes using an MEA1060-Up amplifier and MC Rack software (Multi-Channel Systems). The activity of the retinal in response to illumination is monitored before and after PVN incubation. The retina is continuously perfused with oxygenated (95% O2, 5% CO2), heated (32C) Ames' Medium for baseline activity. The retina is then perfused with Ames' Medium containing PVN for 30 min to 1 hr, followed by 10 min wash with regular Ames' Medium before recording in Ames' Medium with 5-10 mM ascorbate. The retina will be illuminated by white LED light through a bandpass excitation filter (460-500 nm) with durations of 100 μs, 1 ms, 10 ms, 100 ms, […] and 30 s. […]

leech ganglion neurons = assay: Leech ganglion neurons, light-induced action potential firing; type: cell-based, Hirudo verbana; conditions: ex vivo leech ganglia
Procedure: Adult leeches Hirudo verbana will be obtained from Niagara Medical Leeches, Inc. (Westbury, N.Y., USA). Groups (20-30) of animals will be kept in glass aquaria with artificial pond water (36 mg/L Instant Ocean salts; Aquarium Systems, Mentor Ohio), in a temperature-controlled room at 16° C. and a 12:12 h light:dark cycle. At the time of experiments, leeches will weigh 1-3 g. Before dissection, the leech will be anesthetized in ice-cold leech saline. Leech saline has the following composition (in mM per liter): NaCl—115, KCl—4, CaCl2—1.8, MgCl2—2, HEPES—10, D-Glucose—5 (Sigma-Aldrich, USA). Individual ganglia will be dissected from the mid-body segments M6-M12, and pinned down in Sylgard-filled dissection box. Medial dorsal longitudinal incision will be made and the blood will be flushed away. Connective tissue and the blood vessel overlaying the ganglion chain will be incised. Dissected ganglia will be transferred to a Petri dish, pinned down in paraffin with six stainless steel pins (dorsal side up). PVNs will be microinjected into the extracellular space of the ganglion with a glass micropipette. Intracellular recording will be performed by penetrating the Retzius neurons with sharp glass electrodes (20-30 MOhm) filled with 3M potassium acetate. […] Neuronal firing will be recorded before and after the injections.

CCCCCCCCCCCCCCCCCc1ccnc(-c2cc(C)ccn2)c1.F[P-](F)(F)(F)(F)F.F[P-](F)(F)(F)(F)F.[Ru+2].c1ccc(-c2ccccn2)nc1.c1ccc(-c2ccccn2)nc1 [RubpyC17, [Ru(bpy)2(bpy-C17)](PF6)2]
retinal histology / pathology (RCS rats): no evidence of retinal cell death or white blood cell infiltrates; also recorded: absence of obvious signs of deleterious effects
light-induced hyperpolarization (HEK293T cells; 100 uM ferricyanide in extracellular solution): 20.9 ± 4.9 mV
light-induced depolarization with ferrocyanide as reductant (HEK293T cells; HEK293T, 0.1 mM ferrocyanide): light-induced depolarization was also observed
light-induced depolarization (HEK293T cells; HEK293 cells, presence of ascorbate): 14.6 ± 2.4 mV
continuous illumination required to reach maximum light-triggered depolarization (INS cells; 0.46-0.48 mE s−1 m2, FIGS. 18B-18F): ~30 s
light-induced increase of membrane potential (INS cells; INS cells, 10 μM ~2 min, 2 mM ascorbate): 15.9 ± 4.6 mV
light-induced increase of membrane potential (INS cells; INS cells, absence of ascorbate): 9.8 ± 4.5 mV
light-triggered depolarization with non-permeating ions (INS cells; INS cells, cesium and NMDG instead of potassium and sodium): still persisted
illumination time at which cells undergo membrane potential change (INS cells; oxidants (ferricyanide) present, FIG. 18A): ≥ 10 s
reversibility of light-induced depolarization (INS cells; presence of reductants): appears to be irreversible
illumination time at which cells undergo membrane potential change (INS cells; reductants (ascorbate) present, INS and HEK293T (FIG. 18A)): ≥ 25 s
light-induced action potential firing / spike frequency ([1]; listed as Rubpy): spike frequency increased
light-induced action potential firing / spike frequency ([1]; listed as Rubpy-C17): respond to illumination by firing action potentials
light-induced action potential firing (leech ganglion neurons): respond to illumination by firing action potentials; also recorded: light-induced increases in action potential firing
